Data taken from patent publication US5616732A, “Intermediates for difluoroprostacyclins and methods for their production” (Asahi Glass Company Ltd., priority 1994, dated 1997).
Values after ≈ are worked out from the molar mass of the structure shown. Where two headings read alike, the source gives them in different places.

Legend:
[1] = cited from earlier work
[2] = Stability test in an aqueous solution; assay type: physicochemical; details: for half-life / remaining at 168 h / remaining at 480 h: physiological saline, 25° C., 10 μg/ml in physiological sodium chloride solution; for remaining at 168 h: 7 days, read-out: Remaining ratio 7 days; for remaining at 480 h: 20 days, read-out: Remaining ratio 20 days
Method: A test compound was dissolved in ethanol to a concentration of 1 mg/ml. Then, it was diluted with a physiological sodium chloride solution to obtain a solution having a concentration of 10 μg/ml. The solution was stored at 25° C., and the remaining ratio of the test compound was measured as time passed. The remaining ratio was quantitatively analyzed by an internal standard (methyl benzoate) method using high performance liquid chromatography (Shimadzu LC9A, SPC-6AU; Milipore 805-DS). The column used was YMC AM312 (ODS), and the eluent used was a solvent mixture of acetonitrile and a 1% triethylamine-phosphoric acid buffer solution (pH6.3).

human platelets = assay: Platelet aggregation inhibitory activities in vitro (ADP-induced, human platelet-rich plasma); assay type: cell-based; details: for IC50: Homo sapiens, Platelet, ADP final concentration 4 μM, 37° C.; for platelet aggregation inhibitory activities (in words): compared with natural type prostacyclin or other compounds
Method: Platelet aggregation inhibitory activities of test compounds in vitro were measured by using human platelets.
Into a plastic container containing one volume of a 3.8% sodium citrate solution, 9 volumes of blood of a healthy person was collected, and the container was gently turned over for admixing. The mixture was centrifugally separated at 1,000 rpm for 10 minutes at room temperature, whereupon the supernatant was taken as a platelet-rich plasma (PRP). The lower layer was further centrifugally separated at 3,000 rpm for 15 minutes at room temperature, whereupon the supernatant was taken as a platelet-poor plasma (PPP). PRP was diluted with PPP so that the number of platelets became about 30×10^4 /μl. An aggregometer was calibrated, and then 200 μl of PRP thus prepared was heated at 37° C. for one minute. Then, 25 μl of a solution obtained by diluting a test compound with a physiological sodium chloride solution, was added thereto, and the mixture was heated at 37° C. for one minute. Then, […] of an adenosine-5'-1.5 sodium diphosphate (ADP, Sigma) solution was added thereto so that the final concentration would be 4 μM, whereby the change in transmittance was recorded by the aggregometer. The transmittance was measured with respect to the solution immediately after dissolving the test compound in the physiological sodium chloride solution and the solution after leaving it at 25° C. for 24 hours. The solution of the test compound was dissolved in a physiological sodium chloride solution and then used by diluting it with a physiological sodium chloride solution.
Aggregation inhibition (%)=(1-T/T0)×100
T0 : Transmittance in the case where the physiological sodium chloride solution was added.
T: Transmittance in the case where the test compound was added.

[3] = solution immediately after dissolving, read-out: IC50 Immediately after preparation
[4] = solution left at 25° C. for 24 hours, read-out: IC50 24 hours later

Row | SMILES | half-life ([1]; reported in literature) | half-life [2] [days] | remaining at 168 h [2] [%] | remaining at 480 h [2] [%] | IC50 (human platelets; [3]) [µg/mL] | IC50 (human platelets; [4]) [µg/mL] | platelet aggregation inhibitory activities (in words) (human platelets) | chemical stability (in words) [2] | physiological activities (in words) (human platelets; stated generally as physiological activities) | half-life ([1]; as mentioned above, conditions not restated) | half-life in an aqueous solution ([1]; pH7.48 at 25° C.) [min]
1 | CCCCC[C@H](O)C#C[C@@H]1[C@H]2C/C(=C/CCCC(=O)O)O[C@H]2C(F)(F)[C@H]1O [10,10-difluoro-13,14-dehydroprostacyclin] | about 24 hours |  |  |  |  |  |  |  |  |  | 
2 | CCCC[C@H](C)C[C@H](O)/C=C/[C@@H]1[C@@H]2[C@H](C[C@H]1O)O/C(=C\CCCC(=O)O)C2(F)F [Compound 11, sodium 5-[(1S,5R,6R,7R)-2-oxa-4,4-difluoro-7-hydroxy-6-{(3S,5S)-3-hydroxy-5-methyl-E-1-nonenyl}bicyclo[3.3.0]octan-3-ylidene]pentanoate] |  | > 90 | 102 | 96.8 | 0.0086 | 0.0078 | activities close to natural type prostacyclin |  |  |  | 
3 | O=C(O)CCC/C=C1\O[C@H]2C[C@@H](O)[C@H](/C=C/[C@@H](O)C3CCCC3)[C@H]2C1(F)F [Compound 13, sodium 5-[(1S,5R,6R,7R)-2-oxa-4,4-difluoro-7-hydroxy-6-{(3S)-3-cyclopentyl-3-hydroxy-E-1-propenyl}bicylco[3.3.0]octan-3-ylidene]pentanoate] |  | > 90 | 100 | 98 | 0.0663 | 0.0629 |  |  |  |  | 
4 | CCC#CCC(C)[C@H](O)/C=C/[C@@H]1[C@@H]2[C@H](C[C@H]1O)O/C(=C\CCCC(=O)O)C2(F)F (stereo partly drawn) [Compound 15, sodium 5-[(1S,5R,6R,7R)-2-oxa-4,4-difluoro-7-hydroxy-6-{(3S,4RS)-3-hydroxy-4-methyl-E-1-nonen-6-ynyl}bicyclo-[3.3.0]octan-3-ylidene]pentanoate] |  | > 90 | 98.9 | 97.8 | 0.00079 | 0.00078 | even higher activities than natural type prostacyclin |  |  |  | 
5 | CCC#CC[C@H](C)[C@H](O)/C=C/[C@@H]1[C@@H]2[C@H](C[C@H]1O)O/C(=C\CCCC(=O)O)C2(F)F [Compound 17, sodium 5-[(1S,5R,6R,7R)-2-oxa-4,4-difluoro-7-hydroxy-6-{(3S,4S)-3-hydroxy-4-methyl-E-1-nonen-6-ynyl}bicyclo[3.3.0]octan-3-ylidene]pentanoate] |  | > 90 | 102 | 100 | 0.00038 | 0.00039 | even higher activities than natural type prostacyclin |  |  |  | 
6 | CCCCC[C@H](O)/C=C/[C@@H]1[C@@H]2[C@H](C[C@H]1O)O/C(=C\CCCC(=O)O)C2(F)F [Compound 19, sodium 5-[(1S,5R,6R,7R)-2-oxa-4,4-difluoro-7-hydroxy-6-{(3S)-3-hydroxy-E-1-octenyl}bicyclo[3.3.0]octan-3-ylidene]pentanoate] |  | > 90 | 99.3 | 97.2 | 0.0561 | 0.0604 |  |  |  |  | 
7 | Cc1cccc(C[C@H](O)/C=C/[C@@H]2[C@@H]3[C@H](C[C@H]2O)O/C(=C\CCCC(=O)O)C3(F)F)c1 [Compound 21, sodium 5-[(1S,5R,6R,7R)-2-oxa-4,4-difluoro-7-hydroxy-6-{(3S)-3-hydroxy-4-(3-methylphenyl)-E-1-butenyl}bicyclo[3.3.0]octan-3-ylidene]pentanoate] |  | > 90 | 101 | 100 | 0.0087 | 0.0089 |  |  |  |  | 
8 | CCCC[C@H](C)C[C@@H](O)/C=C/[C@@H]1[C@@H]2[C@H](C[C@H]1O)O/C(=C\CCCC(=O)O)C2(F)F [Compound 23] |  | > 90 | 100 | 100 | 0.059 (≈ 0.142 µM) | 0.0582 (≈ 0.14 µM) |  |  |  |  | 
9 | CCC#CCC(C)[C@@H](O)/C=C/[C@@H]1[C@@H]2[C@H](C[C@H]1O)O/C(=C\CCCC(=O)O)C2(F)F (stereo partly drawn) [Compound 25, sodium 5-[(1S,5R,6R,7R)-2-oxa-4,4-difluoro-7-hydroxy-6-{(3R,4RS)-3-hydroxy-4-methyl-E-1-none-6-ynyl}bicyclo[3.3.0]octan-3-ylidene]pentanoate] |  | > 90 | 101 | 99.8 | 0.027 | 0.0281 |  |  |  |  | 
10 | CCC#CC[C@H](C)[C@@H](O)/C=C/[C@@H]1[C@@H]2[C@H](C[C@H]1O)O/C(=C\CCCC(=O)O)C2(F)F [Compound 27] |  | > 90 | 99.5 | 100 | 0.0084 (≈ 0.0204 µM) | 0.008 (≈ 0.0194 µM) | activities close to natural type prostacyclin |  |  |  | 
11 | Cc1cccc(C[C@@H](O)/C=C/[C@@H]2[C@@H]3[C@H](C[C@H]2O)O/C(=C\CCCC(=O)O)C3(F)F)c1 [Compound 29, sodium 5-[(1S,5R,6R,7R)-2-oxa-4,4-difluoro-7-hydroxy-6-{(3R)-3-hydroxy-4-(3-methylphenyl)-E-1-butenyl}bicyclo[3.3.0]octan-3-ylidene]pentanoate] |  | > 90 | 99.1 | 99.3 | > 0.2 | > 0.2 |  |  |  |  | 
12 | CCCCC[C@H](O)C#C[C@@H]1[C@@H]2[C@H](C[C@H]1O)O/C(=C\CCCC(=O)O)C2(F)F [Compound 31, sodium 5-[(1S,5R,6R,7R)-2-oxa-4,4-difluoro-7-hydroxy-6-{(3S)-3-hydroxy-1-octynyl}bicyclo[3.3.0]octan-3-ylidene]pentanoate, reference compound] |  | > 90 | 99.5 | 97 | 0.0737 | 0.0758 | low activities as compared with other compounds | chemical stability substantially equal to other compounds | physiological activities are inadequate and substantially lower than natural type prostacyclin |  | 
13 | CCCCC[C@H](O)/C=C/[C@@H]1[C@H]2C/C(=C/CCCC(=O)O)O[C@H]2C[C@H]1O [PGI2 Na, reference compound] |  |  |  |  | 0.0021 (≈ 0.00596 µM) | > 0.2 |  |  |  |  | 
14 | CCCCC[C@H](O)/C=C/[C@@H]1[C@H]2C/C(=C/CCCC(=O)O)O[C@H]2C[C@H]1O [natural type prostacyclin] |  |  |  |  |  |  |  |  |  | about 10 minutes | 10.5
